ChEMBL document CHEMBL1157942, “Bioactive diterpenes from the fruits of Detarium microcarpum” (2006)

System: Cladosporium cucumerinum
Experiment: Antifungal activity against Cladosporium cucumerinum after 3 days
Format: functional

SMILES | Activity [µg]
C/C(=C\C(=O)O)CC[C@]1(C)[C@H](C)CC[C@]2(C)[C@H]1CC[C@H](O)[C@@]2(C)O | >100
CC1=CC(=O)C[C@H]2[C@](C)(CC/C(C)=C/C(=O)O)[C@@H](C)CC[C@]12C | >100
C/C(=C\C(=O)O)CC[C@@]1(C)[C@H]2CC[C@H]3O[C@@]3(C)[C@@]2(C)CC[C@@H]1C | 10
C=C1CC[C@@H]2C(C)(C)CCC[C@@]2(C)[C@@H]1CC/C(C)=C/C(=O)O [COPALIC ACID] | >100
C/C(=C/C(=O)O)CC[C@]1(C)[C@@H](C)CC[C@]2(C)[C@H]1CC[C@@H](O)[C@@]2(C)O | 10
CC1=CC(=O)C[C@H]2[C@](C)(CC/C(C)=C/C(=O)O)[C@H](C)CC[C@@]12C | 100
Clc1ccc(COC(Cn2ccnc2)c2ccc(Cl)cc2Cl)c(Cl)c1 (configuration not stated) [MICONAZOLE] | 1
